“And” between values parts separate entries of the source, which are not always exact repeats. Equal values may be shown once. “Also recorded” adds a separate entry of the source. Where a name gives a salt, the structure may show the parent alone.
Experiments:
[1] = system: volume-induced rhythmic urinary bladder contractions; assay: volume-induced rhythmic urinary bladder contractions in urethane anaesthetised rats (rat model of overactive bladder); type: in vivo, Sprague Dawley rat; settings: for presence/absence of bladder contractions (block grade), individual animal: 55 min period, Table 3; for decrease in frequency, individual animal / duration of block, individual animal / increase in frequency, individual animal / number of episodes of block per animal: individual animals; for mean pressure peaks of the amplitude diminished/reduced by: reduction
Text: In the search for new drugs compounds are of interest which affect the central nervous system circuits involved in micturation as well as the peripheral nerves resulting in a decrease in the frequency of the voiding reflex without any effect on bladder contractility. […] The method utilises spontaneous, volume-induced contractions of the urinary bladder in anaesthetised rats and was developed and first described by Dray (J. Pharmacol. Meth. 13:157-165, 1985) to assess the central activity of substances with opioid properties on bladder function. As this model clearly mimics the interplay between smooth muscle function and neuronal control thereof, this model can be also used to predict drug effects in a different disease, i.e. irritable bowl syndrome (IBS).
Aim of the study: To characterise the effects of the analgesic flupirtine maleate on the bladder function we used the model volume-induced contractions of urinary bladder in urethane anaesthetised rats. […] The compounds at the dose range 0.1-10 mg/kg were intraduodenally administered to anaesthetised rats. The intraduodenal route was chosen to mimic the oral route and to avoid the use of solvents necessary for intravenous administration.
• Species: Sprague Dawley rat • Sex: Female • Body weight: 200-270 g • Breeder: Charles River, Sulzfeld • Food/Tap water: pellets, ssniff M/R15, ad libitum, Spezialdiäten GmbH, Soest/Wesffalen, FRG • Conditions in animal housing: Rats were kept conventionally in groups of 6 in macrolon cages No. 4. • Room temperature: 20-24° C. • Relative humidity: 40-70%, deviations from the maximum range caused during cleaning procedure are possible • Light/Dark rhythm: 12/12 h light/dark cycle, light on at 6:00 a.m.
The food was withdrawn 16 hours before intraduodenal drug administration. Tap water was available ad libitum.
Flupirtine maleate or oxybutynin hydrochloride were suspended in hydroxyethylcellulose (0.5%) in demineralised water. The substances were ground in a mortar with pistil. The suspensions were placed on a magnetic stirrer before and during dosing procedures. The substances were freshly prepared in the morning and applied intraduodenally in a volume of 0.4 ml/100 g body weight. Control rats received hydroxyethylcellulose (0.5%) i.d.
The filling material, consisting of small globules, was ground in a mortar with pistil. Thereafter the grounded material was suspended in hydroxyethylcellulose (0.5%) in demineralised water. The suspensions were placed on a magnetic stirrer before and during dosing procedures for 10 minutes. The suspensions were freshly prepared in the morning and applied intraduodenally in a volume of 0.4 ml/100 g body weight to rats. Control rats received the same amount of hydroxyethylcellulose (0.5%) i.d.
The continuous registration lasted 1 hr. […] The frequency was evaluated for 10 min before (baseline) and within the observation period in intervals of 10 minutes starting 5, 20, 35 and 50 min after drug administration. For intraduodenal dosing, drugs were administered via a duodenal polyethylene tube to animals in aqueous suspension of 0.5% hydroxyethylcellulose.

[2] = system: mean arterial blood pressure; assay: mean arterial blood pressure recorded in the urethane anaesthetised rats of the bladder model
Protocol: The body temperature was maintained at 37° C. by means of an heated small operating table and 2 red light heating lamps. The left carotid artery was prepared and a catheter for continuous blood pressure measurement was inserted and connected to a Statham pressure transducer (Model P23 Db) and connected with a computer-controlled physiological recorder (PMS PR 800, Mumed Systems Ltd London, GB).
For intraduodenal drug administration a polyethylene catheter was inserted into the upper part of the duodenum, about 5 cm downwards from the pylorus and fixed with a purse-string suture. Bilateral ureters were ligated proximally to the bladder to prevent the bladder filling with urine. Urine of the kidneys was drained onto cotton swabs within the abdomen. The urinary bladder was catheterised via the urethra by use of PE 50 polyethylene tubing filled with physiological saline and secured in place by a ligature at the lower part of the urethra. Using a “T”-connector, the bladder catheter was connected to a Statham pressure transducer (Model P23 Db) connected with the physiological recorder (PMS PR 800) to measure intravesicular pressure and to a Infusion pump (TSE, FRG). Continuous recordings of intravesicular pressure and arterial blood pressure were captured onto a 4 channel Linearcorder WR3310 (Western Graphtec, Inc., USA). The experiment was started infusing (0.05 ml/min) the bladder with warmed saline (37-38° C.) to evoke rhythmic bladder contractions by means an infusion pump up to a maximal volume of 1.0 ml. The infusion is stopped after reaching the final volume or with the start of rhythmic bladder contractions.

[3] = 0.1 mg/kg i.d. single dose, group mean
[4] = 1.0 mg/kg i.d. single dose, group mean
[5] = 10 mg/kg i.d. single dose, group mean

`CCN(CC)CC#CCOC(=O)C(O)(c1ccccc1)C1CCCCC1` (stereo not drawn) [oxybutynin hydrochloride, (α-Phenylcyclohexaneglycolicacid 4-[diethylamino]-2-butynyl ester hydrochloride] was tested, and the “block X/n (animals with blockade of bladder contraction)” value (“block X/n” for short) ([1]; 0.1 mg/kg i.d. single dose) was 3/3, the “block, blockade duration (group, min-max)” value (“block, blockade duration” below) ([1]; 0.1 mg/kg i.d. single dose) was 4 to 6 min and the “amplitude Post (30-60 min), mean” value [1, 3] was 32.0-32.0 mm Hg. For the same molecule, the “amplitude, change in percent from base value (Δ %)” value [1, 3] was −13%, the “frequency Post (20-60 min), mean” value [1, 3] was 6.3-7.3 n/10 min and the “frequency, change in percent from base value (Δ %)” value [1, 3] was −12%. For the same molecule, the “presence/absence of bladder contractions (block grade), individual animal” value (from here on “presence/absence of bladder contractions”) ([1]; 0.1 mg/kg i.d.) was “(+) (+ or (+) = contractions abolished during 5-10 min time period)”, the “decrease in frequency, individual animal” value ([1]; 0.1 mg/kg i.d., hydrochloride) was “decrease in frequency by 25%,; also recorded: frequency by 50%” and the “duration of block, individual animal” value ([1]; 0.1 mg/kg i.d., hydrochloride) was ≤ 6 min and 5 min and max. 4 min, initial increase,. For the same molecule, the “increase in frequency, individual animal” value ([1]; 0.1 mg/kg i.d., hydrochloride) was “frequency by 17%; also recorded: by 9% during 5-15th min”, the “number of episodes of block per animal” value ([1]; 0.1 mg/kg i.d., hydrochloride) was 4 (2×) and 1 and the “number of episodes of block per animal” value ([1]; 0.1 mg/kg i.d., listed as Oxybutynin hydrochloride, hydrochloride) was 1-4. The “mean pressure peaks of the amplitude diminished/reduced by” value ([1]; 0.1 mg/kg i.d.) was 13%, the “block X/n” value ([1]; 1.0 mg/kg i.d. single dose) was 3/3 and the “amplitude, change in percent from base value (Δ %)” value [1, 4] was −20%. The “frequency, change in percent from base value (Δ %)” value [1, 4] was −68%, the “amplitude Post (30-60 min), mean” value ([1]; 1.0 mg/kg i.d. single dose, group mean, hydrochloride) was 3/3 bl and the “presence/absence of bladder contractions” value ([1]; 1.0 mg/kg i.d., hydrochloride) was “+++ from 3 to 11th and 30 to (+++ = contractions abolished during 30-60 min time period); also recorded: ++ (++ = contractions abolished during 10-30 min time period)”. The “mean voiding frequency decreased by” value ([1]; 1 mg/kg i.d., decrease) was 68%, the “decrease in frequency, individual animal” value ([1]; 1.0 mg/kg i.d., hydrochloride) was “contractions by 100%; also recorded: frequency by 62%; also recorded: by 80%” and the “duration of block, individual animal” value ([1]; 1.0 mg/kg i.d., hydrochloride) was 9 min and 30 min and 7 to 16 min and 4 to 11 min. For the same molecule, the “number of episodes of block per animal” value ([1]; 1.0 mg/kg i.d., hydrochloride) was 3-6 and 3 and 5, the “mean pressure peaks of the amplitude diminished/reduced by” value ([1]; 1 mg/kg i.d.) was 20% and the “block X/n” value ([1]; 10 mg/kg i.d. single dose) was 3/3. For the same molecule, the “amplitude, change in percent from base value (Δ %)” value [1, 5] was −38%, the “frequency, change in percent from base value (Δ %)” value [1, 5] was “+22%” and the “block, blockade duration” value ([1]; 10 mg/kg i.d. single dose, hydrochloride) was 5 to 30 min. The “block, blockade duration” value ([1]; 10 mg/kg i.d. single dose, listed as Oxybutynin hydrochloride, hydrochloride) was 4 to 30 min, the “presence/absence of bladder contractions” value ([1]; 10 mg/kg i.d., hydrochloride) was “+ (+ or (+) = contractions abolished during 5-10 min time period); also recorded: ++ (++ = contractions abolished during 10-30 min time period)” and the “mean frequency averaged over all animals increased by” value ([1]; 10 mg/kg i.d., increase) was 22%. For the same molecule, the “duration of block, individual animal” value ([1]; 10 mg/kg i.d., hydrochloride) was 4 min (2×) and 30 min, the “increase in frequency, individual animal” value ([1]; 10 mg/kg i.d., hydrochloride) was “increase in frequency by 14%; also recorded: in frequency by 28%; also recorded: increase in frequency by 22%” and the “number of episodes of block per animal” value ([1]; 10 mg/kg i.d., hydrochloride) was 2 and 1 (2×). For the same molecule, the “mean pressure peaks of the amplitude diminished/reduced by” value ([1]; 10 mg/kg i.d.) was 38%, the “reduction in the amplitude, of the basal value” ([1]; dose range 0.1-10 mg/kg i.d., generally) was “no more than 60%” and the “mean BP, change in percent from base value (Δ %)” value [2, 3] was −5%. For the same molecule, the “mean BP Post (30-60 min), mean” value [2, 4] was 80.0-85.0 mm Hg, the “mean BP, change in percent from base value (Δ %)” value [2, 4] was −15% and the “mean BP, change in percent from base value (Δ %)” value [2, 5] was −24%. For the same molecule, the “mean arterial blood pressure decreased by” value ([2]; 10 mg/kg i.d., decrease) was 24%.
